Laboratory results: US20140171438A1, “Hybrid Compounds And Methods Of Making And Using The Same” (CELLCEUTIX CORPORATION, priority 2012, published 2014)
Converted amounts (≈) assume the structure as drawn. Like-named read-outs stand apart in the source and are kept apart here.

What was measured:
Type in all cases: cell-based
[1] = Cytotoxicity, colorimetric tetrazolium assay; settings: one hour with compound in serum-free media
Protocol: Cytotoxicity of the compounds was evaluated in a colorimetric assay using a transformed human liver cell line (HepG2, HB-8065) and an embryonic mouse cell line (NIH/3T3 cells, CRL-1658). This assay measures the bioreduction of a novel tetrazolium compound to a soluble formazan product by viable cells. HepG2 cells were seeded in 96 well plates at 2×10^4 cells/well in MEM medium with 10% fetal bovine serum (FBS) for 24 hours prior to use. NIH/3T3 cells were seeded in 96 well plates at 2×10^4 cells/well in DMEM medium with 10% bovine calf serum (BCS) 24 hours prior to use. Cell monolayers were rinsed in serum-free media and incubated for one hour with the compound in serum-free media. After incubation, the media was replaced with serum supplemented media and live cells were measured using the Cell Titer 96 Aqueous […] (Promega, Madison, Wis.). EC50 values were determined using a four parameter logistic equation: Y=Bottom+(Top−Bottom)/(1+10̂((Log EC50−X)*HillSlope)). Actual results from a representative cytotoxicity assay are shown below in Table 2. Data is expressed as EC50 in μg/mL.

[2] = test system: Pseudomonas aeruginosa ATCC 10145; experiment: Antimicrobial activity, MIC, modified microbroth dilution; settings: read-out: MIC (expressed as MIC50) P. Aeruginosa
Protocol: (§1) The compounds were screened for antimicrobial activity against a number of ATCC bacterial strains. Minimum Inhibitory Concentrations (MIC) of each of the compounds were determined using standard CLSI procedures modified by Hancock protocol against E. Coli ATCC 25922, Staphylococcus aureus ATCC 27660, Enterococcus faecalis ATCC 29212, Pseudomonas aeruginosa ATCC 10145, and Klebsiella pneumoniae ATCC 13883.
(§2) This procedure is a modification of the standard microbroth dilution assay recommended by the National Committee for Clinical Laboratory Standards (NCCLS) which has been developed for determining in vitro antimicrobial activities of cationic agents (Steinberg et al., Antimicrob. Agents Chemother., 1997, 41, 1738; and Yan et al., Antimicrob. Agents Chemother., 2001, 45, 1558). The modifications were made to minimize loss of the antimicrobial agent due to adsorption onto glass or plastic surfaces and by precipitation at high concentrations.
(§3) Three mL of Mueller-Hinton II Broth (cation-adjusted) was inoculated with 5 μL of frozen bacterial stock and incubated at 37° C. on a shaker platform (at 250 rpm) overnight. Compound stock solutions were prepared in DMSO and serial two-fold dilutions of compound were made in 0.01% acetic acid, 0.2% bovine serum albumin directly in the wells of the polypropylene plate at 10 μL/well. […] All samples were performed in duplicate. The overnight bacteria suspension was diluted to approximately 10^6 cfu/mL and inoculated into a polypropylene (Costar) 96-well round bottom plate (90 μL volumes). One set of control wells included broth-only samples with dilution buffer for testing sterility and providing blank values for the assay readings. Vehicle-control wells containing the bacterial suspension with DMSO (no compound) were also included. Following the overnight incubation (18 hours), cell growth was assessed by observing the presence of “acceptable growth”, defined by NCCLS as a ≧2 mm button or definite turbidity.
(§4) Actual results from a representative MIC assay are shown below in Table 1. Data is expressed as MIC50 in μg/mL. The bacterial isolates were as follows: E. coli (25922); S. aureus (27660); E. faecalis (29212); P. aeruginosa (10145); and K. pneumoniae (13883).

[3] = test system: Enterococcus faecalis ATCC 29212; experiment: as above; settings: read-out: MIC (expressed as MIC50) E. faecalis
Protocol: as §1, §2, §3, §4

[4] = test system: E. Coli ATCC 25922; experiment: as above; settings: Escherichia coli, read-out: MIC (expressed as MIC50) E. coli
Protocol: as §1, §2, §3, §4

[5] = test system: Staphylococcus aureus ATCC 27660; experiment: as above; settings: read-out: MIC (expressed as MIC50) S. aureus
Protocol: as §1, §2, §3, §4

[6] = test system: Klebsiella pneumoniae ATCC 13883; experiment: as above; settings: read-out: MIC (expressed as MIC50) K. Pnuemnoiae
Protocol: as §1, §2, §3, §4

[7] = mouse, NIH/3T3 cells (CRL-1658)
[8] = ATCC10145, P. aeruginosa (10145), 18 hours incubation
[9] = ATCC29212, E. faecalis (29212), 18 hours incubation
[10] = ATCC25922, E. coli (25922), 18 hours incubation
[11] = ATCC27660, S. aureus (27660), 18 hours incubation
[12] = ATCC13883, K. pneumoniae (13883), 18 hours incubation

Row | Structure (SMILES) | EC50 at 1 h ([1]; human, HepG2 cells (HB-8065)) | EC50 at 1 h [1, 7] | MIC50 [2, 8] | MIC50 [3, 9] | MIC50 [4, 10] | MIC50 [5, 11] | MIC50 [6, 12] | MIC50 ([2]; ATCC10145, 18 h) | MIC50 ([3]; ATCC29212, 18 h) | MIC50 ([4]; ATCC25922, 18 h) | MIC50 ([5]; ATCC27660, 18 h) | MIC50 ([6]; ATCC13883, 18 h)
1 | N=C(N)NCCCCC(=O)Nc1cc(C(F)(F)F)cc(NC(=O)Nc2ccc(Oc3cc([N+](=O)[O-])cc(C(F)(F)F)c3)cc2)c1SCCN [Compound 100, (4-(2-(2-aminoethylthio)-3-(3-(4-(3-(trifluoromethyl)-5-nitrophenoxy)phenyl)ureido)-5-(trifluoromethyl)phenylcarbamoyl)butyl)guanidine] | 396 µg/mL (≈ 553 µM) | 56.2 µg/mL (≈ 78.4 µM) | 50 µg/mL (≈ 69.8 µM) | 50 µg/mL (≈ 69.8 µM) | 50 µg/mL (≈ 69.8 µM) | 25 µg/mL (≈ 34.9 µM) | 50 µg/mL (≈ 69.8 µM) | – | – | – | – | –
2 | N=C(N)NCCCCC(=O)Nc1cc(C(F)(F)F)cc(NC(=O)Nc2ccc(Oc3cc([N+](=O)[O-])cc(C(F)(F)F)c3)cc2)c1O[C@@H]1CCNC1 [Compound 101, [3-[4-[[3-(5-guanidinopentanoylamino)-2-[(3R)-pyrrolidin-3-yl]oxy-5-(trifluoromethyl)phenyl]carbamoylamino]phenoxy]-5-(trifluoromethyl)phenyl]azinic acid] | > 1000 µg/mL | > 1000 µg/mL | – | – | – | – | – | > 100 µg/mL | 100 µg/mL (≈ 138 µM) | > 100 µg/mL | 50 µg/mL (≈ 68.8 µM) | 100 µg/mL (≈ 138 µM)
3 | N=C(N)NCCCCC(=O)Nc1cc(C(F)(F)F)cc(NC(=O)Nc2ccc(Oc3cc(N)cc(C(F)(F)F)c3)cc2)c1SCCN [Compound 102, (4-(2-(2-aminoethylthio)-3-(3-(4-(3-amino-5-(trifluoromethyl)phenoxy)phenyl)ureido)-5-(trifluoromethyl)phenylcarbamoyl)butyl) guanidine] | 68 µg/mL (≈ 99 µM) | 36.7 µg/mL (≈ 53.4 µM) | 12.5 µg/mL (≈ 18.2 µM) | 6.25 µg/mL (≈ 9.1 µM) | 3.13 µg/mL (≈ 4.56 µM) | 0.78 µg/mL (≈ 1.14 µM) | 6.25 µg/mL (≈ 9.1 µM) | – | – | – | – | –
4 | N=C(N)NCCCCC(=O)Nc1cc(C(F)(F)F)cc(NC(=O)Nc2ccc(Oc3cc(N)cc(C(F)(F)F)c3)cc2)c1O[C@@H]1CCNC1 [Compound 103, (4-(2-((R)-pyrrolidin-3-yloxy)-3-(3-(4-(3-amino-5-(trifluoromethyl)phenoxy)phenyl)ureido)-5-(trifluoromethyl)phenylcarbamoyl)butyl)guanidine] | – | – | 12.5 µg/mL (≈ 17.9 µM) | 12.5 µg/mL (≈ 17.9 µM) | 3.13 µg/mL (≈ 4.49 µM) | 0.78 µg/mL (≈ 1.12 µM) | 12.5 µg/mL (≈ 17.9 µM) | – | – | – | – | –
5 | N=C(N)NCCCCC(=O)Nc1cc(C(F)(F)F)cc(NC(=O)Nc2ccc(Oc3cc(NCCN)cc(C(F)(F)F)c3)cc2)c1O[C@@H]1CCNC1 [Compound 104] | 148 µg/mL (≈ 200 µM) | 82.7 µg/mL (≈ 112 µM) | 6.25 µg/mL (≈ 8.45 µM) | 3.13 µg/mL (≈ 4.23 µM) | 3.13 µg/mL (≈ 4.23 µM) | 0.049 µg/mL (≈ 0.0662 µM) | 3.13 µg/mL (≈ 4.23 µM) | – | – | – | – | –
6 | N=C(N)NCCCCC(=O)Nc1cc(C(F)(F)F)cc(NC(=O)Nc2ccc(Oc3cc(NCCCN)cc(C(F)(F)F)c3)cc2)c1SCCN [Compound 105, (4-(2-(2-aminoethylthio)-3-(3-(4-(3-(3-aminopropylamino)-5-(trifluoromethyl)phenoxy)phenyl)ureido)-5-(trifluoromethyl)phenylcarbamoyl)butyl)guanidine] | 40 µg/mL (≈ 53.8 µM) | 49.4 µg/mL (≈ 66.4 µM) | 3.13 µg/mL (≈ 4.21 µM) | 0.78 µg/mL (≈ 1.05 µM) | 1.56 µg/mL (≈ 2.1 µM) | 0.195 µg/mL (≈ 0.262 µM) | 1.56 µg/mL (≈ 2.1 µM) | – | – | – | – | –
7 | N=C(N)NCCCCC(=O)Nc1cc(C(F)(F)F)cc(NC(=O)Nc2ccc(Oc3cc(NCCN)cc(C(F)(F)F)c3)cc2)c1SCCN [Compound 106, (4-(2-(2-aminoethylthio)-3-(3-(4-(3-(2-aminoethylamino)-5-(trifluoromethyl)phenoxy)phenyl)ureido)-5-(trifluoromethyl)phenylcarbamoyl)butyl) guanidine] | 61.8 µg/mL (≈ 84.7 µM) | 52.6 µg/mL (≈ 72.1 µM) | 3.13 µg/mL (≈ 4.29 µM) | 1.56 µg/mL (≈ 2.14 µM) | 0.78 µg/mL (≈ 1.07 µM) | 0.195 µg/mL (≈ 0.267 µM) | 1.56 µg/mL (≈ 2.14 µM) | – | – | – | – | –
8 | N=C(N)NCCCCC(=O)Nc1cc(C(F)(F)F)cc(NC(=O)Nc2cccc(Oc3cc(NC(=N)N)cc(C(F)(F)F)c3)c2)c1SCCN [Compound 107, N-[2-(2-aminoethylsulfanyl)-3-[[3-[3-guanidino-5-(trifluoromethyl)phenoxy]phenyl]carbamoylamino]-5-(trifluoromethyl)phenyl]-5-guanidino-pentanamide] | – | – | 6.25 µg/mL (≈ 8.58 µM) | 12.5 µg/mL (≈ 17.2 µM) | 3.13 µg/mL (≈ 4.3 µM) | 0.39 µg/mL (≈ 0.535 µM) | 12.5 µg/mL (≈ 17.2 µM) | – | – | – | – | –
9 | N=C(N)NCCCCC(=O)Nc1cc(C(F)(F)F)cc(NC(=O)Nc2ccc(Oc3ccc(NCCN)c(C(F)(F)F)c3)c(CCCN)c2)c1SCCN [Compound 108, N-[3-[[4-[4-(2-aminoethylamino)-3-(trifluoromethyl)phenoxy]-3-(3-aminopropyl)phenyl]carbamoylamino]-2-(2-aminoethylsulfanyl)-5-(trifluoromethyl)phenyl]-5-guanidino-pentanamide] | 395 µg/mL (≈ 502 µM) | 186 µg/mL (≈ 236 µM) | 6.25 µg/mL (≈ 7.94 µM) | 1.56 µg/mL (≈ 1.98 µM) | 3.13 µg/mL (≈ 3.98 µM) | 3.13 µg/mL (≈ 3.98 µM) | 3.13 µg/mL (≈ 3.98 µM) | – | – | – | – | –
10 | N=C(N)NCCCCC(=O)Nc1cc(C(F)(F)F)cc(NC(=O)Nc2ccc(Oc3ccc(NCCN)c(C(F)(F)F)c3)c(CCCN)c2)c1O[C@@H]1CCNC1 [Compound 109, N-[3-[[4-[4-(2-aminoethylamino)-3-(trifluoromethyl)phenoxy]-3-(3-aminopropyl)phenyl]carbamoylamino]-2-[(3R)-pyrrolidin-3-yl]oxy-5-(trifluoromethyl)phenyl]-5-guanidino-pentanamide] | 409 µg/mL (≈ 513 µM) | 256 µg/mL (≈ 321 µM) | 12.5 µg/mL (≈ 15.7 µM) | 1.56 µg/mL (≈ 1.96 µM) | 6.25 µg/mL (≈ 7.84 µM) | 3.13 µg/mL (≈ 3.93 µM) | 6.25 µg/mL (≈ 7.84 µM) | – | – | – | – | –
11 | N=C(N)NCCCCC(=O)Nc1cc(C(F)(F)F)cc(NC(=O)Nc2cccc(Oc3cc(NC(=N)N)cc(C(F)(F)F)c3)c2)c1O[C@@H]1CCNC1 [Compound 116, 5-guanidino-N-[3-[[3-[3-guanidino-5-(trifluoromethyl)phenoxy]phenyl]carbamoylamino]-2-[(3R)-pyrrolidin-3-yl]oxy-5-(trifluoromethyl)phenyl]pentanamide] | – | – | 6.25 µg/mL (≈ 8.46 µM) | 12.5 µg/mL (≈ 16.9 µM) | 3.13 µg/mL (≈ 4.24 µM) | 0.39 µg/mL (≈ 0.528 µM) | 12.5 µg/mL (≈ 16.9 µM) | – | – | – | – | –
12 | N=C(N)NCCCCC(=O)Nc1cc(C(F)(F)F)cc(NC(=O)Nc2cccc(Oc3cc(NCCCN)cc(C(F)(F)F)c3)c2)c1SCCN [Compound 117] | – | – | 6.25 µg/mL (≈ 8.4 µM) | 3.13 µg/mL (≈ 4.21 µM) | 1.56 µg/mL (≈ 2.1 µM) | 0.39 µg/mL (≈ 0.524 µM) | 3.13 µg/mL (≈ 4.21 µM) | – | – | – | – | –
13 | N=C(N)NCCCCC(=O)Nc1cc(C(F)(F)F)cc(NC(=O)Nc2cccc(Oc3cc(NCCCN)cc(C(F)(F)F)c3)c2)c1O[C@@H]1CCNC1 [Compound 118, N-[3-[[3-[3-(3-aminopropylamino)-5-(trifluoromethyl)phenoxy]phenyl]carbamoylamino]-2-[(3R)-pyrrolidin-3-yl]oxy-5-(trifluoromethyl)phenyl]-5-guanidino-pentanamide] | – | – | 6.25 µg/mL (≈ 8.29 µM) | 3.13 µg/mL (≈ 4.15 µM) | 3.13 µg/mL (≈ 4.15 µM) | 0.195 µg/mL (≈ 0.259 µM) | 3.13 µg/mL (≈ 4.15 µM) | – | – | – | – | –
